Results: the NIST ThermoML archive (doi:10.1021/acs.jced.8b01146)
Several values for one entry are separate records, joined by “and”; a condition that tells them apart may be missing. Equal entries are not always repeated. Numbers after ± are expanded uncertainties.

What was measured:
[1] = xn = mol fraction of the nth substance listed; conditions: 100 kPa, Liquid, Vibrating tube method
[2] = excess molar enthalpy (molar enthalpy of mixing); xn = mol fraction of the nth substance listed; conditions: 100 kPa, Liquid, Calvet calorimetry

CC1CCC(=O)O1 (stereo not given) [γ-valerolactone] + O
Conditions	excess molar enthalpy, [2]	mass density, [1]
288.15 K, x1 = 0.000948	-0.00117 ± 0.000194 kcal/mol	999.61 ± 0.034 kg/m3
288.15 K, x1 = 0.001895	-0.0023 ± 0.000203 kcal/mol	1000.12 ± 0.035 kg/m3
288.15 K, x1 = 0.00284	-0.00341 ± 0.000215 kcal/mol	1000.62 ± 0.037 kg/m3
288.15 K, x1 = 0.003783	-0.00447 ± 0.000225 kcal/mol	1001.12 ± 0.039 kg/m3
288.15 K, x1 = 0.004724	-0.00551 ± 0.000234 kcal/mol	1001.62 ± 0.042 kg/m3
288.15 K, x1 = 0.005663	-0.00652 ± 0.000239 kcal/mol	1002.11 ± 0.045 kg/m3
298.15 K, x1 = 0.000947	-0.000872 ± 0.000191 kcal/mol	997.5 ± 0.035 kg/m3
298.15 K, x1 = 0.001893	-0.00171 kcal/mol	997.952 ± 0.035 kg/m3 and 997.948 ± 0.035 kg/m3
298.15 K, x1 = 0.002836	-0.00252 ± 0.000206 kcal/mol	998.397 ± 0.037 kg/m3
298.15 K, x1 = 0.002837	-0.00253 ± 0.000206 kcal/mol	998.399 ± 0.037 kg/m3
298.15 K, x1 = 0.003778	-0.00331 ± 0.000213 kcal/mol	998.844 ± 0.038 kg/m3
298.15 K, x1 = 0.003779	-0.00331 ± 0.000213 kcal/mol	998.843 ± 0.038 kg/m3
298.15 K, x1 = 0.004718	-0.00407 ± 0.00022 kcal/mol	999.282 ± 0.04 kg/m3
298.15 K, x1 = 0.004719	-0.00406 ± 0.00022 kcal/mol	999.28 ± 0.04 kg/m3
298.15 K, x1 = 0.005658	-0.00479 kcal/mol and -0.00481 kcal/mol	999.717 ± 0.035 kg/m3 and 999.723 ± 0.035 kg/m3
308.15 K, x1 = 0.000947	-0.000574 ± 0.000189 kcal/mol	994.435 ± 0.036 kg/m3
308.15 K, x1 = 0.001892	-0.00113 ± 0.000194 kcal/mol	994.839 ± 0.037 kg/m3
308.15 K, x1 = 0.001893	-0.00113 ± 0.000194 kcal/mol	994.839 ± 0.037 kg/m3
308.15 K, x1 = 0.002835	-0.00165 ± 0.000198 kcal/mol	995.239 ± 0.038 kg/m3
308.15 K, x1 = 0.002836	-0.00165 ± 0.000198 kcal/mol	995.239 ± 0.038 kg/m3
308.15 K, x1 = 0.003777	-0.00215 ± 0.000203 kcal/mol	995.637 ± 0.039 kg/m3
308.15 K, x1 = 0.003778	-0.00215 ± 0.000203 kcal/mol	995.634 ± 0.039 kg/m3
308.15 K, x1 = 0.004716	-0.00262 ± 0.000208 kcal/mol	996.023 ± 0.04 kg/m3
308.15 K, x1 = 0.004718	-0.00261 ± 0.000206 kcal/mol	996.023 ± 0.04 kg/m3
308.15 K, x1 = 0.005656	-0.00306 kcal/mol and -0.00308 kcal/mol	996.412 ± 0.036 kg/m3 and 996.415 ± 0.036 kg/m3
318.15 K, x1 = 0.000946	-0.000275 ± 0.000186 kcal/mol	990.573 ± 0.038 kg/m3
318.15 K, x1 = 0.000947	-0.000275 ± 0.000186 kcal/mol	990.572 ± 0.038 kg/m3
318.15 K, x1 = 0.001891	-0.000526 ± 0.000189 kcal/mol	990.933 ± 0.038 kg/m3
318.15 K, x1 = 0.001892	-0.000526 ± 0.000189 kcal/mol	990.933 ± 0.038 kg/m3
318.15 K, x1 = 0.002835	-0.000758 ± 0.000191 kcal/mol	991.289 ± 0.039 kg/m3
318.15 K, x1 = 0.003776	-0.00097 ± 0.000194 kcal/mol	991.639 ± 0.04 kg/m3
318.15 K, x1 = 0.003777	-0.000966 ± 0.000194 kcal/mol	991.641 ± 0.04 kg/m3
318.15 K, x1 = 0.004716	-0.00115 kcal/mol and -0.00114 kcal/mol	991.985 ± 0.041 kg/m3 and 991.983 ± 0.041 kg/m3
318.15 K, x1 = 0.005655	-0.00131 kcal/mol and -0.00132 kcal/mol	992.329 ± 0.042 kg/m3 and 992.332 ± 0.042 kg/m3

CC1=CCC(=O)O1 [5-methylfuran-2(3H)-one] + O
Conditions	excess molar enthalpy, [2]	mass density, [1]
288.15 K, x1 = 0.001003	-0.000397 kcal/mol and -0.000394 kcal/mol	999.878 ± 0.034 kg/m3 and 999.871 ± 0.034 kg/m3
288.15 K, x1 = 0.002004	-0.000729 ± 0.000191 kcal/mol	1000.64 ± 0.037 kg/m3
288.15 K, x1 = 0.002005	-0.000727 ± 0.000191 kcal/mol	1000.64 ± 0.037 kg/m3
288.15 K, x1 = 0.003003	-0.00101 ± 0.000194 kcal/mol	1001.39 ± 0.041 kg/m3
288.15 K, x1 = 0.003004	-0.00101 ± 0.000194 kcal/mol	1001.39 ± 0.041 kg/m3
288.15 K, x1 = 0.004	-0.00125 ± 0.000196 kcal/mol	1002.15 ± 0.046 kg/m3
288.15 K, x1 = 0.004001	-0.00123 ± 0.000196 kcal/mol	1002.14 ± 0.046 kg/m3
288.15 K, x1 = 0.004995	-0.00143 ± 0.000196 kcal/mol	1002.91 ± 0.051 kg/m3
288.15 K, x1 = 0.004996	-0.00141 ± 0.000196 kcal/mol	1002.92 ± 0.051 kg/m3
288.15 K, x1 = 0.00599	-0.00152 kcal/mol and -0.00155 kcal/mol	1003.65 ± 0.056 kg/m3 and 1003.64 ± 0.056 kg/m3
298.15 K, x1 = 0.001003	-2.65e-05 ± 0.000186 kcal/mol	997.759 ± 0.036 kg/m3
298.15 K, x1 = 0.001004	-2.65e-05 ± 0.000186 kcal/mol	997.756 ± 0.036 kg/m3
298.15 K, x1 = 0.002004	-6.21e-06 kcal/mol	998.467 ± 0.037 kg/m3
298.15 K, x1 = 0.002006	-6.21e-06 kcal/mol	998.464 ± 0.037 kg/m3
298.15 K, x1 = 0.003003	6.57e-05 ± 0.000186 kcal/mol	999.156 ± 0.04 kg/m3
298.15 K, x1 = 0.003005	6.05e-05 ± 0.000186 kcal/mol	999.156 ± 0.04 kg/m3
298.15 K, x1 = 0.004	0.000175 ± 0.000186 kcal/mol	999.847 ± 0.043 kg/m3
298.15 K, x1 = 0.004003	0.000175 ± 0.000186 kcal/mol	999.843 ± 0.043 kg/m3
298.15 K, x1 = 0.004993	0.000335 ± 0.000203 kcal/mol	1000.51 ± 1.9 kg/m3
298.15 K, x1 = 0.004998	0.000332 ± 0.000189 kcal/mol	1000.53 ± 0.18 kg/m3
298.15 K, x1 = 0.005987	0.000559 ± 0.000382 kcal/mol	1001.2 ± 2.3 kg/m3
298.15 K, x1 = 0.005992	0.000571 ± 0.000198 kcal/mol	1001.21 ± 0.96 kg/m3
308.15 K, x1 = 0.001003	0.000327 kcal/mol and 0.000325 kcal/mol	994.684 ± 0.037 kg/m3
308.15 K, x1 = 0.002003	0.000693 ± 0.000191 kcal/mol	995.33 ± 0.038 kg/m3
308.15 K, x1 = 0.002004	0.000693 ± 0.000191 kcal/mol	995.328 ± 0.038 kg/m3
308.15 K, x1 = 0.003002	0.0011 ± 0.000194 kcal/mol	995.967 ± 0.04 kg/m3
308.15 K, x1 = 0.003003	0.0011 ± 0.000194 kcal/mol	995.967 ± 0.04 kg/m3
308.15 K, x1 = 0.003999	0.00155 ± 0.000198 kcal/mol	996.597 ± 0.043 kg/m3
308.15 K, x1 = 0.004	0.00153 ± 0.000198 kcal/mol	996.594 ± 0.043 kg/m3
308.15 K, x1 = 0.004994	0.00204 ± 0.000203 kcal/mol	997.199 ± 0.046 kg/m3
308.15 K, x1 = 0.004995	0.00202 ± 0.000203 kcal/mol	997.205 ± 0.046 kg/m3
308.15 K, x1 = 0.005987	0.00257 ± 0.000208 kcal/mol	997.78 ± 0.041 kg/m3
308.15 K, x1 = 0.00599	0.00258 ± 0.000208 kcal/mol	997.837 ± 0.041 kg/m3
318.15 K, x1 = 0.001003	0.000667 ± 0.000191 kcal/mol	990.808 ± 0.038 kg/m3 and 990.803 ± 0.038 kg/m3
318.15 K, x1 = 0.002003	0.00136 kcal/mol and 0.00137 kcal/mol	991.392 ± 0.039 kg/m3 and 991.396 ± 0.039 kg/m3
318.15 K, x1 = 0.003002	0.00211 kcal/mol and 0.0021 kcal/mol	991.977 ± 0.041 kg/m3 and 991.98 ± 0.041 kg/m3
318.15 K, x1 = 0.003998	0.00286 ± 0.00021 kcal/mol	992.55 ± 0.043 kg/m3
318.15 K, x1 = 0.003999	0.00286 ± 0.00021 kcal/mol	992.546 ± 0.043 kg/m3
318.15 K, x1 = 0.004993	0.00369 kcal/mol and 0.00367 kcal/mol	993.112 ± 0.046 kg/m3 and 993.102 ± 0.046 kg/m3
318.15 K, x1 = 0.005986	0.00455 ± 0.000227 kcal/mol	993.663 ± 0.049 kg/m3
318.15 K, x1 = 0.005987	0.00456 ± 0.000227 kcal/mol	993.668 ± 0.05 kg/m3
